Assay results: patent publication US20260048051A1, “TREATMENT OF INFLAMMATORY BOWEL DISEASE” (Atomwise Inc., priority 2024, published 2026)
Like-named read-outs stand apart in the source and are kept apart here.

Assay: Plasma and tissue distribution in SD rats
Type: in vivo
Settings: for Kp / AUC(0-t): rat, 10 mg/kg; for AUC(0-t): plasma
From the text: The following Example describes the methods and data used to evaluate the tissue distribution of TYK2 inhibitors following the administration of either compound 1 or compound 2.
Thirty (30, 15/sex) SD rats supplied by Beijing Vital River Laboratory Animal Technology Co., Ltd. were used in this study. The animals were confirmed to be healthy before being assigned to the study. The room (s) was controlled and monitored for relative humidity (targeted mean range 40% to 70%) and temperature (targeted mean range 20° C. to 26° C.) with 15 or above air changes/hour. The room was on a 12-hour light/dark cycle except when interruptions were necessitated by study activities. Fresh drinking water (reverses osmosis) was available to all animals, ad libitum. Certified animal diet from certified vendor was available to all animals, ad libitum.
Animals were weighed prior to dose administration to calculate the actual dose volume. The body weights were in the range from 245.39 to 276.33 g for males and 182.29 to 215.69 g for females on the first dosing day. The animals in Groups 1 and 2 received a single oral gavage administration of test compound 1. Cage-side observations for the general health condition and appearance of the animal were performed before and after dosing and at each time point of sample collection. Unusual observations were recorded throughout the duration of the study.
The vehicle was 0.5% methyl cellulose (4000 cps) in water. The formulation was prepared according to the following steps. Group 1: 25.95 mg of compound 1 was weighed into a glass vial. 5000 μL of vehicle was added into the vial and stirred for 30 min at 1700 rpm to get a homogenous opaque suspension. 5000 μL of vehicle was added into the vial and stirred for 10 min at 1700 rpm to get a homogenous opaque suspension. 5000 μL+5000 μL+5000 μL+924 μL of vehicle was added into the vial and stirred for 10 min at 1700 rpm to get a homogenous opaque suspension. Group 2: 81.66 mg of compound 1 was weighed into a glass vial. 5000 μL of vehicle was added into the vial and stirred for 30 min at 1700 rpm to get a homogenous opaque suspension. 5000 μL of vehicle was added into the vial and stirred for 10 min at 1700 rpm to get a homogenous opaque suspension. 10 mL+10 mL+10 mL+20 mL+10 mL+10 mL+1580 μL of vehicle was added into the vial and stirred for 10 min at 1700 rpm to get a homogenous opaque suspension.
Blood (about 0.2 mL) was collected at each time point via jugular vein puncture from each study animal. The actual time for each sample collection was recorded. The acceptable deviations on sampling time were ±1 min for the time points pre-dose through 1 hour post-dose, and +5% of the nominal time for time points after 1 hour post-dose.
All blood samples were transferred into commercial tubes containing K2-EDTA. After blood was collected, the samples were placed on wet ice and processed for plasma within 60 minutes of collection by centrifugation at approximately 4° C., 3200×g for 10 minutes, and then quickly frozen over dry ice and kept at −60° C. or lower until LC-MS/MS analysis.
Following terminal blood sample collection, animals were conducted CO2 euthanasia, the chest and abdominal cavities were opened carefully lengthwise using scissors to expose the internal organs in preparation of tissue perfusion. A needle was used to puncture a small hole into the left ventricle of the heart, and then clamped with a hemostat. […] Fluid (cold 1×PBS) was infused until the liver pales (typically 2-3 minutes). Following perfusion, 14 kinds of tissues (spleen, bone marrow, adipose, brain, heart, kidney, liver, lung, skin, small intestine, large intestine, eye, gonads, and bladder) were collected from each animal, respectively.
Each tissue was weighed and homogenized on wet ice using homogenizing buffer (MeOH/15 mM PBS 1:2) at the ratio of 1:9 (1 g tissue with 9 mL buffer). The tissue homogenate was kept at −60° C. or lower until LC-MS/MS analysis. […]

[1] = female SD rat, PO 10 mg/kg, Spleen
[2] = male SD rat, PO 10 mg/kg, Bladder
[3] = male SD rat, PO 10 mg/kg, Bone Marrow
[4] = male SD rat, PO 10 mg/kg, Epididymis & Testis
[5] = male SD rat, PO 10 mg/kg, Eyeball (left and right)
[6] = male SD rat, PO 10 mg/kg, Heart
[7] = male SD rat, PO 10 mg/kg, Kidney (left and right)
[8] = male SD rat, PO 10 mg/kg, Large intestine
[9] = male SD rat, PO 10 mg/kg, Liver
[10] = male SD rat, PO 10 mg/kg, Small intestine
[11] = male SD rat, PO 10 mg/kg, Spleen
[12] = ovary and uterus, female SD rat, PO 10 mg/kg, Ovary & Uterus

SMILES: C[C@@H](c1ccc(Nc2cc(Nc3ncccc3S(C)(=O)=O)ncn2)nc1)N1CC2(COC2)C1 [Compound 1, (S)—N^4-(5-(1-(2-oxa-6-azaspiro[3.3]heptan-6-yl)ethyl)pyridin-2-yl)-N^6-(3-(methylsulfonyl)pyridin-2-yl)pyrimidine-4,6-diamine]
- AUC0-24 [1]: 22131 ng·h/g
- AUC0-inf [1]: 22145 ng·h/g
- AUC0-last [1]: 19543 ng·h/g
- Cmax [1]: 4430 ng/g
- Tmax [1]: 0.5 h
- half-life [1]: 2.62 h
- Kp (female, SD, bladder, po, female SD rat, PO 10 mg/kg, Bladder, Tissue AUC0-last/Plasma AUC0-last, read-out: AUC Ratio): 5.12
- Kp (female, SD, bone marrow, po, female SD rat, PO 10 mg/kg, Bone Marrow, Tissue AUC0-last/Plasma AUC0-last, read-out: AUC Ratio): 4.64
- Kp (female, SD, eyeball (left and right), po, female SD rat, PO 10 mg/kg, Eyeball (left and right), Tissue AUC0-last/Plasma AUC0-last, read-out: AUC Ratio): 0.953
- Kp (female, SD, fat, po, female SD rat, PO 10 mg/kg, Fat, Tissue AUC0-last/Plasma AUC0-last, read-out: AUC Ratio): 0.506
- Kp (female, SD, heart, po, female SD rat, PO 10 mg/kg, Heart, Tissue AUC0-last/Plasma AUC0-last, read-out: AUC Ratio): 1.39
- Kp (female, SD, kidney (left and right), po, female SD rat, PO 10 mg/kg, Kidney (left and right), Tissue AUC0-last/Plasma AUC0-last, read-out: AUC Ratio): 30.6
- Kp (female, SD, large intestine, po, female SD rat, PO 10 mg/kg, Large intestine, Tissue AUC0-last/Plasma AUC0-last, read-out: AUC Ratio): 11.6
- Kp (female, SD, liver, po, female SD rat, PO 10 mg/kg, Liver, Tissue AUC0-last/Plasma AUC0-last, read-out: AUC Ratio): 8.67
- Kp (female, SD, lung, po, female SD rat, PO 10 mg/kg, Lung, Tissue AUC0-last/Plasma AUC0-last, read-out: AUC Ratio): 2.57
- Kp (female, SD, ovary and uterus, po, female SD rat, PO 10 mg/kg, Ovary & Uterus, Tissue AUC0-last/Plasma AUC0-last, read-out: AUC Ratio): 1.29
- Kp (female, SD, skin, po, female SD rat, PO 10 mg/kg, Skin, Tissue AUC0-last/Plasma AUC0-last, read-out: AUC Ratio): 1.11
- Kp (female, SD, small intestine, po, female SD rat, PO 10 mg/kg, Small intestine, Tissue AUC0-last/Plasma AUC0-last, read-out: AUC Ratio): 17.5
- Kp (female, SD, spleen, po, female SD rat, PO 10 mg/kg, Spleen, Tissue AUC0-last/Plasma AUC0-last, read-out: AUC Ratio): 5.73
- Kp (female, Sprague-Dawley, ovaries, oral, SD rat, Ovaries, read-out: Tissue/Plasma Ratio (AUCinf)): 1.4
- AUC(0-t) (female, Sprague-Dawley, po, female SD rat, PO 10 mg/kg, read-out: AUC0-24): 3610 ng·h/mL
- AUC(0-t) (female, Sprague-Dawley, po, female SD rat, PO 10 mg/kg, read-out: AUC0-last): 3410 ng·h/mL
- AUC0-24 [2]: 14526 ng·h/g
- AUC0-inf [2]: 14666 ng·h/g
- AUC0-last [2]: 14526 ng·h/g
- Cmax [2]: 2980 ng/g
- Tmax [2]: 2 h
- half-life [2]: 3.38 h
- AUC0-24 [3]: 10736 ng·h/g
- AUC0-inf [3]: 10835 ng·h/g
- AUC0-last [3]: 10736 ng·h/g
- Cmax [3]: 2900 ng/g
- Tmax [3]: 0.5 h
- half-life [3]: 3.51 h
- AUC0-24 [4]: 5163 ng·h/g
- AUC0-last [4]: 5163 ng·h/g
- AUC0-24 [5]: 1795 ng·h/g
- AUC0-inf [5]: 1830 ng·h/g
- AUC0-last [5]: 1332 ng·h/g
- AUC0-24 (male SD rat, PO 10 mg/kg, Fat): 1703 ng·h/g
- AUC0-inf (male SD rat, PO 10 mg/kg, Fat): 1716 ng·h/g
- AUC0-last (male SD rat, PO 10 mg/kg, Fat): 1388 ng·h/g
- AUC0-24 [6]: 3366 ng·h/g
- AUC0-inf [6]: 3374 ng·h/g
- AUC0-last [6]: 3004 ng·h/g
- AUC0-24 [7]: 23128 ng·h/g
- AUC0-inf [7]: 23415 ng·h/g
- AUC0-last [7]: 23128 ng·h/g
- AUC0-24 [8]: 45091 ng·h/g
- AUC0-last [8]: 45091 ng·h/g
- AUC0-24 [9]: 20288 ng·h/g
- AUC0-inf [9]: 20534 ng·h/g
- AUC0-last [9]: 20288 ng·h/g
- Cmax [9]: 5400 ng/g
- Tmax [9]: 0.5 h
- half-life [9]: 3.87 h
- AUC0-24 (male SD rat, PO 10 mg/kg, Lung): 5806 ng·h/g
- AUC0-inf (male SD rat, PO 10 mg/kg, Lung): 5835 ng·h/g
- AUC0-last (male SD rat, PO 10 mg/kg, Lung): 4926 ng·h/g
- Cmax (male SD rat, PO 10 mg/kg, Lung): 1960 ng/g
- Tmax (male SD rat, PO 10 mg/kg, Lung): 0.5 h
- half-life (male SD rat, PO 10 mg/kg, Lung): 2.7 h
- AUC0-24 (male SD rat, PO 10 mg/kg, Skin): 7864 ng·h/g
- AUC0-inf (male SD rat, PO 10 mg/kg, Skin): 9352 ng·h/g
- AUC0-last (male SD rat, PO 10 mg/kg, Skin): 7864 ng·h/g
- Cmax (male SD rat, PO 10 mg/kg, Skin): 868 ng/g
- Tmax (male SD rat, PO 10 mg/kg, Skin): 0.5 h
- half-life (male SD rat, PO 10 mg/kg, Skin): 8.6 h
- AUC0-24 [10]: 73082 ng·h/g
- AUC0-inf [10]: 73697 ng·h/g
- AUC0-last [10]: 73822 ng·h/g
- Cmax [10]: 16500 ng/g
- Tmax [10]: 0.5 h
- half-life [10]: 3.41 h
- AUC0-24 [11]: 13189 ng·h/g
- AUC0-inf [11]: 13631 ng·h/g
- AUC0-last [11]: 13189 ng·h/g
- Cmax [11]: 4230 ng/g
- Tmax [11]: 0.5 h
- half-life [11]: 4.91 h
- Kp (male, SD, bladder / plasma, po, male SD rat, PO 10 mg/kg, Bladder, Tissue AUC0-last/Plasma AUC0-last, read-out: AUC Ratio): 3.37
- Kp (male, SD, bone marrow / plasma, po, male SD rat, PO 10 mg/kg, Bone Marrow, Tissue AUC0-last/Plasma AUC0-last, read-out: AUC Ratio): 3.97
- Kp (male, SD, large intestine / plasma, po, male SD rat, PO 10 mg/kg, Large intestine, Tissue AUC0-last/Plasma AUC0-last, read-out: AUC Ratio): 16.7
- Kp (male, SD, liver / plasma, po, male SD rat, PO 10 mg/kg, Liver, Tissue AUC0-last/Plasma AUC0-last, read-out: AUC Ratio): 7.5
- Kp (male, SD, lung / plasma, po, male SD rat, PO 10 mg/kg, Lung, Tissue AUC0-last/Plasma AUC0-last, read-out: AUC Ratio): 1.82
- Kp (male, SD, skin / plasma, po, male SD rat, PO 10 mg/kg, Skin, Tissue AUC0-last/Plasma AUC0-last, read-out: AUC Ratio): 2.91
- Kp (male, SD, small intestine / plasma, po, male SD rat, PO 10 mg/kg, Small intestine, Tissue AUC0-last/Plasma AUC0-last, read-out: AUC Ratio): 27
- Kp (male, SD, spleen / plasma, po, male SD rat, PO 10 mg/kg, Spleen, Tissue AUC0-last/Plasma AUC0-last, read-out: AUC Ratio): 4.88
- Kp (male, Sprague-Dawley, epididymis and testis, po, male SD rat, PO 10 mg/kg, Epididymis & Testis, Tissue AUC0-last/Plasma AUC0-last, read-out: AUC Ratio): 1.91
- Kp (male, Sprague-Dawley, eyeball (left and right), po, male SD rat, PO 10 mg/kg, Eyeball (left and right), Tissue AUC0-last/Plasma AUC0-last, read-out: AUC Ratio): 0.492
- Kp (male, Sprague-Dawley, fat, po, male SD rat, PO 10 mg/kg, Fat, Tissue AUC0-last/Plasma AUC0-last, read-out: AUC Ratio): 0.513
- Kp (male, Sprague-Dawley, heart, po, male SD rat, PO 10 mg/kg, Heart, Tissue AUC0-last/Plasma AUC0-last, read-out: AUC Ratio): 1.11
- Kp (male, Sprague-Dawley, kidney (left and right), po, male SD rat, PO 10 mg/kg, Kidney (left and right), Tissue AUC0-last/Plasma AUC0-last, read-out: AUC Ratio): 8.35
- AUC(0-t) (male, Sprague-Dawley, po, male SD rat, PO 10 mg/kg, read-out: AUC0-24): 2910 ng·h/mL
- AUC(0-t) (male, Sprague-Dawley, po, male SD rat, PO 10 mg/kg, read-out: AUC0-last): 2700 ng·h/mL
- Kp (male, Sprague-Dawley, testis, oral, SD rat, Testis, read-out: Tissue/Plasma Ratio (AUCinf)): 1.6
- Cmax [12]: 976 ng/g
- Tmax [12]: 0.5 h
- half-life [12]: 2.68 h
